Results reported in PubChem BioAssay (NCI).
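A five-concentration, 48-hour dose response in 96-well plates underlies each endpoint, interpolated linearly between surrounding concentrations. GI50 = concentration required for 50% inhibition of growth. TGI denotes the concentration required for complete inhibition of growth.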

Assays:
Experiment in all cases: DTP human tumour cell line panel, 48 h
NCI-H226 lung = test system: NCI-H226 lung
NCI-H460 lung = test system: NCI-H460 lung
NCI-H522 lung = test system: NCI-H522 lung
NCI/ADR-RES ovarian = test system: NCI/ADR-RES ovarian
OVCAR-3 ovarian = test system: OVCAR-3 ovarian
OVCAR-4 ovarian = test system: OVCAR-4 ovarian
OVCAR-5 ovarian = test system: OVCAR-5 ovarian
OVCAR-8 ovarian = test system: OVCAR-8 ovarian
PC-3 prostate = test system: PC-3 prostate
RPMI-8226 leukemia = test system: RPMI-8226 leukemia
RXF 393 renal = test system: RXF 393 renal
SF-268 CNS = test system: SF-268 CNS
SF-295 CNS = test system: SF-295 CNS
SF-539 CNS = test system: SF-539 CNS
SK-MEL-2 melanoma = test system: SK-MEL-2 melanoma
SK-MEL-28 melanoma = test system: SK-MEL-28 melanoma
SK-MEL-5 melanoma = test system: SK-MEL-5 melanoma
SK-OV-3 ovarian = test system: SK-OV-3 ovarian
SN12C renal = test system: SN12C renal
SNB-19 CNS = test system: SNB-19 CNS
SNB-75 CNS = test system: SNB-75 CNS
SR leukemia = test system: SR leukemia
SW-620 colon = test system: SW-620 colon
T-47D breast = test system: T-47D breast
TK-10 renal = test system: TK-10 renal
U251 CNS = test system: U251 CNS
UACC-257 melanoma = test system: UACC-257 melanoma
UACC-62 melanoma = test system: UACC-62 melanoma
UO-31 renal = test system: UO-31 renal

## O=C(CN1CCOCC1)NNc1ncnc2ccccc12
NCI-H226 lung
  TGI: 39.7 µM
NCI-H460 lung
  GI50: 19.1 µM
  TGI: 38.9 µM
NCI-H522 lung
  GI50: 1.41 µM
  TGI: 2.92 µM
NCI/ADR-RES ovarian
  GI50: 20.6 µM
  TGI: 50.2 µM
OVCAR-3 ovarian
  GI50: 3.78 µM
  TGI: 14.1 µM
OVCAR-4 ovarian
  GI50: 1.83 µM
  TGI: 3.85 µM
OVCAR-5 ovarian
  GI50: 12.9 µM
  TGI: 25.9 µM
OVCAR-8 ovarian
  GI50: 17.1 µM
  TGI: 33.1 µM
PC-3 prostate
  GI50: 14.7 µM
  TGI: 30.4 µM
RPMI-8226 leukemia
  GI50: 16.9 µM
  TGI: 46.6 µM
RXF 393 renal
  GI50: 2.29 µM
  TGI: 6.12 µM
SF-268 CNS
  GI50: 3.95 µM
  TGI: 18.5 µM
SF-295 CNS
  GI50: 19.5 µM
  TGI: 34.4 µM
SF-539 CNS
  GI50: 13.2 µM
  TGI: 26 µM
SK-MEL-2 melanoma
  GI50: 15.6 µM
  TGI: 30.5 µM
SK-MEL-28 melanoma
  GI50: 12.2 µM
  TGI: 24.5 µM
SK-MEL-5 melanoma
  GI50: 18 µM
  TGI: 33.3 µM
SK-OV-3 ovarian
  GI50: 16.3 µM
  TGI: 30.1 µM
SN12C renal
  GI50: 14.9 µM
  TGI: 28.6 µM
SNB-19 CNS
  GI50: 16.2 µM
  TGI: 30.7 µM
SNB-75 CNS
  GI50: 16 µM
  TGI: 30 µM
SR leukemia
  GI50: 15.7 µM
  TGI: 54.7 µM
SW-620 colon
  GI50: 2.48 µM
  TGI: 6.47 µM
T-47D breast
  GI50: 4.1 µM
  TGI: 19.7 µM
TK-10 renal
  GI50: 21.5 µM
  TGI: 36.3 µM
U251 CNS
  GI50: 13.9 µM
  TGI: 27.5 µM
UACC-257 melanoma
  GI50: 14.1 µM
  TGI: 28 µM
UACC-62 melanoma
  GI50: 13.7 µM
  TGI: 27.2 µM
UO-31 renal
  GI50: 13.3 µM
  TGI: 26.1 µM
